Consider two compounds from patent US20110152166A1, “METHOD OF MODULATION OF PROTEIN PHOSPHORYLATION-DEPENDENT CONFORMATIONAL TRANSITIONS WITH LOW MOLECULAR WEIGHT COMPOUNDS” (priority 2006, published 2011).

Common to all, as to assay: PDK1 activity assay with T308tide
Holding throughout (type): biochemical

One assay has as its target T1, PDK1 50-360 (Homo sapiens, UniProt O15530).
T1 construct: the catalytic domain of PDK1 (50-359) produced in SF9 insect cells; His-tag (pFastbac-HT, TEV site) (N, cleaved yes); made in house; host or cells: Sf9 insect cells (baculovirus, pFastbac-HT)
T1 sequence (O15530 50-359): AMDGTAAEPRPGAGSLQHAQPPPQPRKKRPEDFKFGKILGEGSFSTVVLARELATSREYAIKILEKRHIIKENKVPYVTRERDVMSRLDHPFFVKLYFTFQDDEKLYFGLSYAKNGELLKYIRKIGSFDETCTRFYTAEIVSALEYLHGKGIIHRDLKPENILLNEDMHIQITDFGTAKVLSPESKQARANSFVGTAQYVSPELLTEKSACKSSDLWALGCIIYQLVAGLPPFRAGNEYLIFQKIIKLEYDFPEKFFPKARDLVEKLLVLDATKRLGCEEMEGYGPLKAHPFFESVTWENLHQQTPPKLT
To be noted: for AC50 / Max. activity: PDK1 50-360; for activation of PDK1 CD wt (in words): catalytic domain 50-360 wild type.

The target in the next assay is T2, GST-PDK1 [Arg131Met] (Homo sapiens, UniProt O15530, R131M).
T2 construct: different protein constructs, comprising the full length protein or the catalytic domain alone; made in house; host or cells: HEK293 cells (pEBG-2T-PDK1 mutant)
T2 sequence (O15530 1-556 R131M): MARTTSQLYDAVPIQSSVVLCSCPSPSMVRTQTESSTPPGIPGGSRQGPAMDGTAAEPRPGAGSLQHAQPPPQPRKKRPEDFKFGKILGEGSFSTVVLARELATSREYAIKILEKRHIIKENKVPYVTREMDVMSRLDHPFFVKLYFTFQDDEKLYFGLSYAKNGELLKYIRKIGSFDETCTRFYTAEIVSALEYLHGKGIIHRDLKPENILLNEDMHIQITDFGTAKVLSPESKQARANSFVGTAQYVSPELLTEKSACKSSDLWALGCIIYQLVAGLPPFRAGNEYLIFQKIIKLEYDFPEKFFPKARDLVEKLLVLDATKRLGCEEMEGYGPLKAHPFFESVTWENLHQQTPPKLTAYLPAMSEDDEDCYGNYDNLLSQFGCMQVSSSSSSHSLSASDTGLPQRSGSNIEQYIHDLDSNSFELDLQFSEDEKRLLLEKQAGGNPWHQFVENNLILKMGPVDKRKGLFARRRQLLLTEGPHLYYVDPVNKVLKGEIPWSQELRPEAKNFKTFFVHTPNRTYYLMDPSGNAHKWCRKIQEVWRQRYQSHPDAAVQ

A further assay has as its target T3, GST-PDK1 [Val127Thr] (Homo sapiens, UniProt O15530, V127T).
T3 construct: different protein constructs, comprising the full length protein or the catalytic domain alone; made in house; host or cells: HEK293 cells (pEBG-2T-PDK1 mutant)
T3 sequence (O15530 1-556 V127T): T2 sequence (O15530 1-556 R131M) with V127T, M131R
The following applies: for AC50 / Max. activity: GST-PDK1 [Val127Thr]; for activation of PDK1 Val127Thr mutant: Val127 replaced by Thr.

In another assay the target is T4, GST-PDK1 [Lys115Met] (Homo sapiens, UniProt O15530, K115M).
T4 construct: different protein constructs, comprising the full length protein or the catalytic domain alone; made in house; host or cells: HEK293 cells (pEBG-2T-PDK1 mutant)
T4 sequence (O15530 whole entry K115M, the tested form may be a part): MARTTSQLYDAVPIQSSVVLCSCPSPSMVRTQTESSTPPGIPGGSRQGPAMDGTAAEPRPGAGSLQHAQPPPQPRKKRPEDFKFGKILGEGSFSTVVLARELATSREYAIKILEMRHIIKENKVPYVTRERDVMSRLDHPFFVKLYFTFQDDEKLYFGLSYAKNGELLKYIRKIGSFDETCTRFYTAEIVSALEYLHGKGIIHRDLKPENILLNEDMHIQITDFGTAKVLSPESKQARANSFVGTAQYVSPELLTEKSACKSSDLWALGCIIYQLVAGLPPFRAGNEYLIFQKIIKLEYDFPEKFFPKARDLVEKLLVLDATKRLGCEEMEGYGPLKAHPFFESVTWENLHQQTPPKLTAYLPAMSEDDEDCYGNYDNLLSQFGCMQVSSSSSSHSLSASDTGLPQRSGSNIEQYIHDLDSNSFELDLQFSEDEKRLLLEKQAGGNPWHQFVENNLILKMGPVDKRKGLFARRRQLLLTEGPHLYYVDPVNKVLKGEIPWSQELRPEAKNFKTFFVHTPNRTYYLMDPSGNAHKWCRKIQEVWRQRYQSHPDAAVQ

Positions count from the first letter of the chain named. Like-named read-outs stand apart in the source and are kept apart here. Ends that are not written are not given here.

Take “REPRILSEEEQEMFRDFDYIADWC [PIFtide, reference compound]”: the AC50 on PDK1 50-360 is 170 ± 90 nM; at GST-PDK1 [Arg131Met] (GST-PDK1 [Arg131Met], read-out: AC50) it was 290 ± 50 nM; at GST-PDK1 [Val127Thr] it was 140 ± 70 nM; on GST-PDK1 [Lys115Met] it was “No Effect”. The values for the Max. activity at PDK1 50-360, at GST-PDK1 [Arg131Met] (GST-PDK1 [Arg131Met]) and on GST-PDK1 [Val127Thr] were 2.62 ± 0.18 U/mg, 0.34 ± 0.06 U/mg and 2.36 ± 0.15 U/mg, respectively. The “activation of PDK1 CD wt (in words)” value on PDK1 50-360 is given as “activated”. Moreover, the “activation of PDK1 Val127Thr mutant” value on GST-PDK1 [Val127Thr] amounted to 260%.
Consider `O=C(O)CSC(CC(=O)c1ccc(Cl)cc1)c1ccccc1` (stereo not drawn) [Compound 1], for which, at PDK1 50-360, the AC50 is 38000 ± 8000 nM, the Max. activity turned out to be 3.46 ± 0.19 U/mg and the “activation of PDK1 CD wt (in words)” value is “activated”. The “activation of PDK1 mutant (in words)” value at GST-PDK1 [Arg131Met] (Arg131 mutated to Met) is listed as “no longer activated”. Moreover, the AC50 entry at GST-PDK1 [Arg131Met] (GST-PDK1 [Arg131Met]) was “No Effect”. Further, on GST-PDK1 [Val127Thr], the activity was half-maximal at 104000 ± 58000 nM (AC50), the Max. activity is recorded as 1.69 ± 0.2 U/mg and the “activation of PDK1 Val127Thr mutant” value is reported as 240%. Also, at GST-PDK1 [Lys115Met] (read-out: AC50), the AC50 is over 200000 nM.
